Reference: the NIST ThermoML archive (doi:10.1007/s10765-005-8591-6)

How the values were obtained:
[1] = Fluid (supercritical or subcritical phases), Constant-volume piezometry
[2] = xn = mol fraction of the nth substance listed; conditions: Fluid (supercritical or subcritical phases), Constant-volume piezometry, x1 = 1

FCF [difluoromethane]
[1]
Conditions	mass density [kg/m3]
313.16 K, 3353.7 kPa	900.17
316.15 K, 4967.1 kPa	899.97
319.15 K, 6571.4 kPa	899.77
322.15 K, 8162.4 kPa	899.57
328.16 K, 11400 kPa	899.19
334.15 K, 14753 kPa	898.82
337.15 K, 16580 kPa	898.63

FCF [difluoromethane] + FC(F)C(F)(F)F
[2]
Conditions	mass density [kg/m3]
313.16 K, 3353.7 kPa	900.17
316.15 K, 4967.1 kPa	899.97
319.15 K, 6571.4 kPa	899.77
322.15 K, 8162.4 kPa	899.57
328.16 K, 11400 kPa	899.19
334.15 K, 14753 kPa	898.82
337.15 K, 16580 kPa	898.63

FC(F)C(F)(F)F [pentafluoroethane]
[1]
Conditions	mass density [kg/m3]
258.16 K, 4595.6 kPa	1403.78
261.15 K, 6579.8 kPa	1403.47
262.14 K, 7284.6 kPa	1403.36
267.16 K, 10809 kPa	1402.84
270.19 K, 13003 kPa	1402.53
273.15 K, 15076 kPa	1402.23
275.15 K, 16572 kPa	1402.04
